Test results published in article PMC3961306, “Comparison of the Cancer Gene Targeting and Biochemical Selectivities of All Targeted Kinase Inhibitors Approved for Clinical Use” (PLoS ONE, 2014).

Legend:
Test in all cases: Kinase profiling in a biochemical assay panel (mobility shift assays and ELISA), %-inhibition at 1 μM; selectivity entropy
[1] = biological target: T1, panel of more than 300 wild-type and mutant kinases (313 kinase panel) (Homo sapiens, UniProt Q16832)
T1 sequence (Q16832 22-855): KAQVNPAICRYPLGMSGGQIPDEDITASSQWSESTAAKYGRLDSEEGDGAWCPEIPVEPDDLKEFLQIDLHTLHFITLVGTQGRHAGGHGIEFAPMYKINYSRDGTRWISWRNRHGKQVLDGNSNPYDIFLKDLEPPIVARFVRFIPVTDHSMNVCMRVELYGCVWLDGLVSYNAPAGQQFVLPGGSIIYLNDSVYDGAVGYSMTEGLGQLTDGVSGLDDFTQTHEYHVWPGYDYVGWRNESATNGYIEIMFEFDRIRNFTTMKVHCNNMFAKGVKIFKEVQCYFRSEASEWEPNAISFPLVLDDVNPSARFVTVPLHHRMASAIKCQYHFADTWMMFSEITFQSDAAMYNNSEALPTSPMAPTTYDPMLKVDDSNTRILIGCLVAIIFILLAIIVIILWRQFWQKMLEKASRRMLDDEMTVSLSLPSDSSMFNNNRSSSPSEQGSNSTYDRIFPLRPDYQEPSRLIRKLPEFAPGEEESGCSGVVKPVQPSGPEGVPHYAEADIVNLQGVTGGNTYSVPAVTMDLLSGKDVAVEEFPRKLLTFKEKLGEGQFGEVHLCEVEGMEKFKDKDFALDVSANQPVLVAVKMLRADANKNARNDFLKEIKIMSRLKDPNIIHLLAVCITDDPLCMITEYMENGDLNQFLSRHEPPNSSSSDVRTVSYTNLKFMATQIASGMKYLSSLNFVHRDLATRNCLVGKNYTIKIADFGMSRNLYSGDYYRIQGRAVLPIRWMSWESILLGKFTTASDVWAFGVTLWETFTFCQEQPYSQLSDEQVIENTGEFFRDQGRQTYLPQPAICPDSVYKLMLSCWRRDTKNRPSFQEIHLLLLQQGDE

[2] = biological target: panel of more than 300 wild-type and mutant kinases (313 kinase panel) (Homo sapiens, UniProt P06493)
[3] = biological target: T2, panel of more than 300 wild-type and mutant kinases (313 kinase panel) (Homo sapiens, UniProt Q96PN8)
T2 sequence (Q96PN8 1-268): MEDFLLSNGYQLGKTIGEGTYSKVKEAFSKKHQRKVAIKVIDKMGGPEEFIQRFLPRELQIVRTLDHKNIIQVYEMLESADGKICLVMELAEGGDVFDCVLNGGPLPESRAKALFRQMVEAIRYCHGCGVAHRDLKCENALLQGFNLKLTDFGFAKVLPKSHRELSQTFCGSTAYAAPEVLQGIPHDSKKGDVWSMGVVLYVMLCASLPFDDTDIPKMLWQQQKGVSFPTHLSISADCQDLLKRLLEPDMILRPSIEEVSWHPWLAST

[4] = biological target: panel of more than 300 wild-type and mutant kinases (313 kinase panel) (Homo sapiens, UniProt P50750)
[5] = biological target: panel of more than 300 wild-type and mutant kinases (313 kinase panel) (Homo sapiens, UniProt P22694)
[6] = biological target: panel of more than 300 wild-type and mutant kinases (313 kinase panel) (Homo sapiens, UniProt Q9Y2H1)
Chain of panel of more than 300 wild-type and mutant kinases (313 kinase panel) (Homo sapiens, UniProt Q9Y2H1) (Q9Y2H1 whole entry, change not shown): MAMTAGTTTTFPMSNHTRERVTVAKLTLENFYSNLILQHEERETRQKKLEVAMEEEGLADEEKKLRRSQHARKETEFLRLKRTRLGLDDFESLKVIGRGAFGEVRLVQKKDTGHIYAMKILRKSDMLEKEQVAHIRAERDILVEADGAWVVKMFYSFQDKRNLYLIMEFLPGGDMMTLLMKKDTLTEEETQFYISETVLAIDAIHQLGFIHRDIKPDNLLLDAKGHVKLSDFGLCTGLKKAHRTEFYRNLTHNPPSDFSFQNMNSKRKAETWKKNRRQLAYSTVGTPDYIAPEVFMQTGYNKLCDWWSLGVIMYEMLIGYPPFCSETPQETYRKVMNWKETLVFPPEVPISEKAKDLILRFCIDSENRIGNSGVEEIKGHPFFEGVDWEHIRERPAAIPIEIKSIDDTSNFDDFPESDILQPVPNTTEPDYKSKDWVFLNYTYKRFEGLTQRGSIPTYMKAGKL

[7] = biological target: panel of more than 300 wild-type and mutant kinases (313 kinase panel) (Homo sapiens, UniProt P45983)
Chain of panel of more than 300 wild-type and mutant kinases (313 kinase panel) (Homo sapiens, UniProt P45983) (P45983 whole entry, change not shown): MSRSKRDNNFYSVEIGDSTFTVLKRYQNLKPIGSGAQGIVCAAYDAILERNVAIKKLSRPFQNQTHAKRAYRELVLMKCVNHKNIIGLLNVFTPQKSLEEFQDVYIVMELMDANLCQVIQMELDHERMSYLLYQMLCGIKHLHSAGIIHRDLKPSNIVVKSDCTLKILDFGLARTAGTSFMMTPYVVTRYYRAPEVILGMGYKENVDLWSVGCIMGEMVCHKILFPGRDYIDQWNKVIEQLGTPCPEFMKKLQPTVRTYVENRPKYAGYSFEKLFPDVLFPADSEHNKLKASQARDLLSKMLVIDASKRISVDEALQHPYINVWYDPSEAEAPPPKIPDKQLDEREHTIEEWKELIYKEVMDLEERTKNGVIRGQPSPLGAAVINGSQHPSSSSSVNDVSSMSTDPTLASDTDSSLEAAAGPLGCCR

[8] = biological target: panel of more than 300 wild-type and mutant kinases (313 kinase panel) (Homo sapiens, UniProt P49674)
[9] = biological target: panel of more than 300 wild-type and mutant kinases (313 kinase panel) (Homo sapiens, UniProt P07332)
[10] = biological target: panel of more than 300 wild-type and mutant kinases (313 kinase panel) (Homo sapiens, UniProt P27448)
Chain of panel of more than 300 wild-type and mutant kinases (313 kinase panel) (Homo sapiens, UniProt P27448) (P27448 whole entry, change not shown): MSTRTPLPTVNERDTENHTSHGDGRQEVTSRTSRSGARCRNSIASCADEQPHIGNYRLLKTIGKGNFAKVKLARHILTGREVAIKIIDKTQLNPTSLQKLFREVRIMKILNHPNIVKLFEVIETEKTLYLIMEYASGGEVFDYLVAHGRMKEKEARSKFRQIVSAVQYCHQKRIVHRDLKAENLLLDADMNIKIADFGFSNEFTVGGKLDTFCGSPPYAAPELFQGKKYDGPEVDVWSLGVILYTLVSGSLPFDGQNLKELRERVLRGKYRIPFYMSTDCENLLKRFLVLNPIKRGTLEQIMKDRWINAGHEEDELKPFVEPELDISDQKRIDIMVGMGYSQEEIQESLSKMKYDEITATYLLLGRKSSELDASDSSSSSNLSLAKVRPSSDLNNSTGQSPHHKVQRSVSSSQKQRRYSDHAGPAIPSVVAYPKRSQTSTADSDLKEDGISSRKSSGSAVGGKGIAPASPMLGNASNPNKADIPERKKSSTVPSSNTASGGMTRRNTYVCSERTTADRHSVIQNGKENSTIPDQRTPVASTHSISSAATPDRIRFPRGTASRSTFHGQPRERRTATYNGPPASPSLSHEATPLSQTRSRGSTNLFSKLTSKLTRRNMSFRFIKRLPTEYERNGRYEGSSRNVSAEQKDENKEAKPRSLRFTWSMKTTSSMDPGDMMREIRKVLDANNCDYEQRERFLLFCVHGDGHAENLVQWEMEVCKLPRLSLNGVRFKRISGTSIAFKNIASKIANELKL

[11] = biological target: panel of more than 300 wild-type and mutant kinases (313 kinase panel) (Homo sapiens, UniProt P49841)
[12] = kinase CDC2/CycB1, 1 μM compound
[13] = kinase CDK9/CycT1, 1 μM compound

Row | SMILES | %-inhibition of DDR2 ([1]; kinase DDR2, compound at 1 μM) [%] | %-inhibition, CDC2/CycB1 [2, 12] [%] | %-inhibition of TSSK3 ([3]; kinase TSSK3, compound at 1 μM) [%] | %-inhibition, CDK9/CycT1 [4, 13] [%] | %-inhibition of PKACβ ([5]; kinase PKACβ, 1 μM) [%] | %-inhibition of NDR2 ([6]; kinase NDR2, 1 μM) [%] | %-inhibition of JNK1 ([7]; kinase JNK1, compound at 1 μM) [%] | %-inhibition, CK1ε ([8]; kinase CK1ε, 1 μM compound) [%] | %-inhibition of FES ([9]; kinase FES, compound at 1 μM) [%] | %-inhibition of MARK3 ([10]; kinase MARK3, compound at 1 μM) [%] | %-inhibition of GSK3β ([11]; kinase GSK3β, compound at 1 μM) [%] | also measured
1 | COc1cc(Nc2c(C#N)cnc3cc(OCCCN4CCN(C)CC4)c(OC)cc23)c(Cl)cc1Cl [bosutinib] | 96 | -1.38 | -2 | -4.22 | 52 | – | – | – | – | – | – | –
2 | COc1cc2nccc(Oc3ccc(NC(=O)C4(C(=O)Nc5ccc(F)cc5)CC4)cc3)c2cc1OC [cabozantinib] | 99 | -17 | -1.06 | -5.37 | -4.25 | -6 | -2.85 | 3.28 | 39 | -3 | -3.51 | –
3 | C[C@@H](Oc1cc(-c2cnn(C3CCNCC3)c2)cnc1N)c1c(Cl)ccc(F)c1Cl [crizotinib] | 88 | 19 | -0.601 | 5 | -2.3 | -4.76 | 0.431 | 4 | – | 41 | -2.11 | –
4 | CC(C)(C)c1nc(-c2cccc(NS(=O)(=O)c3c(F)cccc3F)c2F)c(-c2ccnc(N)n2)s1 [dabrafenib] | 100 | – | -8 | – | – | -2 | -1.12 | 10 | 2.29 | 4 | – | –
5 | Cc1nc(Nc2ncc(C(=O)Nc3c(C)cccc3Cl)s2)cc(N2CCN(CCO)CC2)n1 [dasatinib] | – | 4.44 | -2.69 | -0.25 | -1.68 | -6 | – | – | – | – | – | –
6 | C#Cc1cccc(Nc2ncnc3cc(OCCOC)c(OCCOC)cc23)c1 [erlotinib] | – | – | – | – | – | – | – | – | – | – | – | %-inhibition of DDR2 ([1]; 1 µM): 43%; %-inhibition of NDR2 ([6]; 1 µM): -6%; %-inhibition of JNK1 ([7]; 1 µM): 1.68%; %-inhibition, CDC2/CycB1 ([2]; 1 µM): 6%; %-inhibition of TSSK3 ([3]; 1 µM): -7%; %-inhibition, CK1ε ([8]; 1 µM): -2.38%; %-inhibition of FES ([9]; 1 µM): 8.5%; %-inhibition of MARK3 ([10]; 1 µM): 9%; %-inhibition of GSK3β ([11]; 1 µM): -4.63%; %-inhibition, CDK9/CycT1 ([4]; 1 µM): 2.63%; %-inhibition of PKACβ ([5]; 1 µM): -3%
7 | O=S(=O)(c1cccc2cnccc12)N1CCCNCC1 [fasudil] | 0.102 | 6.46 | -6 | 26 | – | 25 | -5.43 | -4.62 | -3.78 | 13 | -8 | –
8 | Cc1ccc(Nc2nccc(N(C)c3ccc4c(C)n(C)nc4c3)n2)cc1S(N)(=O)=O [pazopanib] | 96 | 3 | 4.41 | 31 | 0.211 | 2.36 | – | 0 | – | 4.45 | – | –
9 | Cc1ccc(C(=O)Nc2ccc(CN3CCN(C)CC3)c(C(F)(F)F)c2)cc1C#Cc1cnc2cccnn12 [ponatinib] | 101 | 33 | -4.67 | 16 | – | – | – | – | – | – | – | –
10 | N#CC[C@H](C1CCCC1)n1cc(-c2ncnc3[nH]ccc23)cn1 [ruxolitinib] | 49 | 0.106 | -3 | -3.29 | – | 89 | -3 | 7.39 | 3 | – | 10 | %-inhibition of PKACβ ([5]; 1 µM): 39%
11 | CCN(CC)CCNC(=O)c1c(C)[nH]c(/C=C2\C(=O)Nc3ccc(F)cc32)c1C [sunitinib] | – | – | – | – | – | – | – | 45 | – | – | – | –
12 | COc1cc2c(Nc3ccc(Br)cc3F)ncnc2cc1OCC1CCN(C)CC1 [vandetanib] | 101 | -0.952 | -2.54 | – | -0.0886 | -9 | -0.604 | – | -3.7 | 4 | -3.71 | –
